Results reported in patent publication US9221825B2, “Pyrazolopyrimidinone compound and imidazo triazone compound for treating erectile dysfunction” (Zhejiang Dade Pharmaceutical Group Co., Ltd., priority 2011, dated 2015).

Tested on: adult sexual mature male Sprague-Dawley rats
Assay: Efficacy test of the drug for anti-Erectile Dysfunction (copulation test)
Format: in vivo, rat
Conditions: for Catching times / Latent period of catch behavior / Riding times: intragastric administration
[1] = male Sprague-Dawley rats, dosage 4.4 mg/kg bw
[2] = animal experiments, in comparison with Sildenafil
[3] = male Sprague-Dawley rats, dosage 2.2 mg/kg bw
[4] = male Sprague-Dawley rats, dosage 8.8 mg/kg bw

Row | Compound | Catching times [1] [times] | Latent period of catch behavior [1] [s] | Riding times [1] [times] | Effective drug duration [2] | Onset time [2] | Effect on catching times in comparison with the solution control group (male Sprague-Dawley rats, P<0.05) | Catching times [3] [times] | Latent period of catch behavior [3] [s] | Riding times [3] [times] | Catching times [4] [times] | Latent period of catch behavior [4] [s] | Riding times [4] [times]
1 | CCCc1nn(C)c2c(=O)[nH]c(-c3cc(S(=O)(=O)N4CCN(C)CC4)ccc3OCC)nc12 [Sildenafil, reference compound] | 27 ± 6 | 12.5 ± 6.5 | 24 ± 7 |  |  |  |  |  |  |  |  | 
2 | CCCc1nn(C)c2c(=O)[nH]c(-c3cc(S(=O)(=O)N4CCCN(C)CC4)ccc3OCC)nc12.O=C(O)CC(O)(CC(=O)O)C(=O)O [ED9001, 5-[2-ethoxy-5-(4-methyl-1-homopiperazinylsulfonyl)]-phenyl-1-methyl-3-n-propyl-1,6-dihydro-7H-pyrazolo[4,3-d]pyrimidine-7-one citrate] | 26 ± 9 | 14.4 ± 7.5 | 21 ± 7 | longer | shorter | distinct effect on improving catching times | 31 ± 9 | 12.1 ± 3.6 | 24 ± 7 | 32 ± 9 | 14.2 ± 4.9 | 27 ± 10
